# Data published in the COVID Moonshot data (paper PMC11187573), “Identification of SARS-CoV-2 Mpro inhibitors through deep reinforcement learning for de novo drug design and computational chemistry approaches” (RSC Medicinal Chemistry, 2024).
# Tests used:
# [1] = target: SARS-CoV-2 Main Protease (SARS-CoV-2) (UniProt P0DTD1)
# [2] = target: SARS-CoV-2 Main Protease (SARS-CoV-2) (UniProt P0DTD1); remark: listed apart in the source
smiles,measurement,setting,value
Cn1cnnc1NC(=O)Cc1cccc(Cl)c1F,relative solubility at 20 uM,,0.98
same,relative solubility at 100 uM,,0.99
same,inhibition,[1]; 20.0 µM,5.1%
same,inhibition,[1]; 50.0 µM,-1.13%
same,inhibition,[2]; 50.0 µM,-13.1%
CN(C)C(=O)C[C@@H]1CN(C(=O)c2cnn3c2CCC3)c2ccc(Cl)cc21 (stereo in doubt),relative solubility at 20 uM,,1
same,relative solubility at 100 uM,,1
same,inhibition,[1]; 20.0 µM,-17.5%
same,inhibition,[1]; 50.0 µM,-10.8%
same,inhibition,[2]; 20.0 µM,0%
CC(NC(=O)c1ccccc1OC1CCCCC1)c1cnccn1 (configuration not stated),relative solubility at 20 uM,,1
same,relative solubility at 100 uM,,1
same,inhibition,[1]; 50.0 µM,11.2%
same,inhibition,[2]; 20.0 µM,0%
same,inhibition,[2]; 50.0 µM,0%
C=CC(=O)N(c1ccc(C(F)(F)F)cc1)C(C(=O)NCCc1cccc(F)c1)c1cncc(Cl)c1 (configuration not stated),relative solubility at 20 uM,,0.94
same,relative solubility at 100 uM,,0.28
same,inhibition,[1]; 20.0 µM,50.2%
same,inhibition,[1]; 50.0 µM,68.2%
same,IC50,[2],4.84 µM
same,inhibition,[2]; 50.0 µM,82.1%
CN1C(=O)/C(=N\NC(=O)c2ccc3c(c2)OCO3)c2ccccc21,relative solubility at 20 uM,,0.97
same,relative solubility at 100 uM,,0.75
same,inhibition,[1]; 20.0 µM,-16.9%
same,inhibition,[1]; 50.0 µM,-60.6%
same,inhibition,[2]; 50.0 µM,-12.8%
Cc1ccncc1NC(=O)CN1CCOCC1,relative solubility at 20 uM,,1
same,relative solubility at 100 uM,,1
same,inhibition,[1]; 20.0 µM,-2.39%
same,inhibition,[1]; 50.0 µM,-7.76%
same,inhibition,[2]; 50.0 µM,5.7%
Cc1ccccc1CN1CCN(C(=O)C(F)C(C)C)CC1 (configuration not stated),relative solubility at 20 uM,,1
same,relative solubility at 100 uM,,1
same,inhibition,[1]; 20.0 µM,2.74%
same,inhibition,[1]; 50.0 µM,6.7%
same,inhibition,[2]; 20.0 µM,0%
same,inhibition,[2]; 50.0 µM,10.3%
Cc1ccc(S(=O)(=O)N2CCN(C(=O)c3cc(=O)[nH]c4ccc(F)cc34)CC2)c(C)c1,relative solubility at 20 uM,,0.98
same,relative solubility at 100 uM,,0.84
same,inhibition,[1]; 20.0 µM,6.24%
same,inhibition,[1]; 50.0 µM,20.6%
same,inhibition,[2]; 50.0 µM,11.7%
C=CC(=O)N(c1ccc(C(C)(C)C)cc1)C(C(=O)NCCOC)c1cccnc1 (configuration not stated),relative solubility at 20 uM,,1
same,relative solubility at 100 uM,,1
same,inhibition,[1]; 20.0 µM,35.7%
same,inhibition,[1]; 50.0 µM,52.7%
same,inhibition,[2]; 20.0 µM,25.7%
same,inhibition,[2]; 50.0 µM,70.3%
CCC(CC)C(=O)C(C#N)C(=O)Nc1ccc(F)cc1 (configuration not stated),relative solubility at 20 uM,,1
same,relative solubility at 100 uM,,1
same,inhibition,[1]; 50.0 µM,-16.2%
same,inhibition,[2]; 20.0 µM,0%
same,inhibition,[2]; 50.0 µM,0%
O=C(Nc1cccnc1)Nc1cccc(Cl)c1,relative solubility at 20 uM,,0.98
same,relative solubility at 100 uM,,0.99
same,inhibition,[1]; 20.0 µM,12.9%
same,inhibition,[1]; 50.0 µM,30.9%
same,inhibition,[2]; 50.0 µM,44.1%
C=CC(=O)N(c1ccc(C(C)(C)C)cc1)C(C(=O)Nc1ccc(F)cc1)c1cccnc1 (configuration not stated),relative solubility at 20 uM,,0.98
same,relative solubility at 100 uM,,0.86
same,inhibition,[1]; 20.0 µM,17%
same,inhibition,[1]; 50.0 µM,36%
same,inhibition,[2]; 20.0 µM,8.55%
same,inhibition,[2]; 50.0 µM,31.9%
O=C(Nc1cccnc1)c1cc(Cl)ccc1O,relative solubility at 20 uM,,1
same,relative solubility at 100 uM,,0.89
same,inhibition,[1]; 20.0 µM,18.3%
same,inhibition,[1]; 50.0 µM,22.8%
same,inhibition,[2]; 20.0 µM,0%
COc1ccc(C2CC(c3cccs3)=NN2C(=O)CCl)cc1OC (configuration not stated),relative solubility at 20 uM,,0.95
same,relative solubility at 100 uM,,0.83
same,inhibition,[1]; 20.0 µM,99.4%
same,inhibition,[1]; 50.0 µM,99.2%
same,IC50,[2],0.969 µM
same,inhibition,[2]; 20.0 µM,95.7%
same,inhibition,[2]; 50.0 µM,91.1%
Cc1ccc(NC(=O)Nc2cccnc2)s1,relative solubility at 20 uM,,1
same,relative solubility at 100 uM,,0.96
same,inhibition,[1]; 20.0 µM,1.9%
same,inhibition,[1]; 50.0 µM,11.3%
same,inhibition,[2]; 20.0 µM,2.62%
same,inhibition,[2]; 50.0 µM,28.6%
O=C(c1cc(=O)[nH]c2ccc(Cl)cc12)N1CCN(S(=O)(=O)c2ccccc2F)CC1,relative solubility at 20 uM,,0.94
same,relative solubility at 100 uM,,0.91
same,inhibition,[1]; 20.0 µM,-7.48%
same,inhibition,[1]; 50.0 µM,4.42%
same,inhibition,[2]; 50.0 µM,17.1%
N#Cc1ccccc1S(=O)(=O)N1CCN(C(=O)c2cc(=O)[nH]c3ccc(F)cc23)CC1,relative solubility at 20 uM,,0.99
same,relative solubility at 100 uM,,0.92
same,inhibition,[1]; 20.0 µM,14.7%
same,inhibition,[1]; 50.0 µM,29.9%
same,inhibition,[2]; 50.0 µM,29.9%
C=CC(=O)N(C(C(=O)NC(C)(C)C)c1cccnc1)C1CC12CC(C)(C)C2 (configuration not stated),relative solubility at 20 uM,,1
same,relative solubility at 100 uM,,0.99
same,inhibition,[1]; 20.0 µM,13%
same,inhibition,[1]; 50.0 µM,15.5%
same,inhibition,[2]; 50.0 µM,3.54%
CC(=O)N1CCN(Cc2cn(-c3cccc(S(N)(=O)=O)c3)nn2)CC1,relative solubility at 20 uM,,0.95
same,relative solubility at 100 uM,,0.97
same,inhibition,[1]; 20.0 µM,-2.75%
same,inhibition,[1]; 50.0 µM,1.36%
same,inhibition,[2]; 20.0 µM,2.3%
same,inhibition,[2]; 50.0 µM,5.73%
O=C(Cc1cccnc1)Nc1cc(Cl)ccc1O,relative solubility at 20 uM,,1.01
same,relative solubility at 100 uM,,0.98
same,inhibition,[1]; 20.0 µM,-1.54%
same,inhibition,[1]; 50.0 µM,23.3%
same,inhibition,[2]; 50.0 µM,6.62%
O=C(Cc1cccc(Cl)c1)Nn1cnc2ccccc21,relative solubility at 20 uM,,1
same,relative solubility at 100 uM,,1
same,inhibition,[1]; 20.0 µM,74.2%
same,inhibition,[1]; 50.0 µM,87.7%
same,IC50,[2],4.27 µM
same,inhibition,[2]; 50.0 µM,45.3%
Cc1ccncc1-c1nc(-c2cccc(Cl)c2)no1,relative solubility at 20 uM,,1
same,relative solubility at 100 uM,,0.99
same,inhibition,[1]; 20.0 µM,3.58%
same,inhibition,[1]; 50.0 µM,5.25%
same,inhibition,[2]; 50.0 µM,22.9%
C=CC(=O)N(c1ccc(C(C)OC)cc1)C(C(=O)Nc1c(C)cccc1CC)c1cccnc1 (configuration not stated),relative solubility at 20 uM,,0.96
same,relative solubility at 100 uM,,0.87
same,inhibition,[1]; 20.0 µM,5.9%
same,inhibition,[1]; 50.0 µM,3.94%
same,inhibition,[2]; 20.0 µM,0%
COc1ccc(C(=O)Nc2cccc(/C=C3/C(=O)NC(=O)c4ccccc43)c2)cc1,relative solubility at 20 uM,,0.48
same,relative solubility at 100 uM,,0.54
same,inhibition,[1]; 20.0 µM,-3.55%
same,inhibition,[1]; 50.0 µM,-22.9%
same,inhibition,[2]; 50.0 µM,34.2%
Cc1ccncc1NC(=O)Cc1cccc(S(N)(=O)=O)c1,relative solubility at 20 uM,,0.99
same,relative solubility at 100 uM,,0.99
same,inhibition,[1]; 20.0 µM,11.1%
same,inhibition,[1]; 50.0 µM,6.23%
same,inhibition,[2]; 50.0 µM,11.5%
CC1(C)CC(C(=O)Nc2nncn2C2CC2)c2ccccc2O1 (configuration not stated),relative solubility at 20 uM,,1
same,relative solubility at 100 uM,,0.98
same,inhibition,[1]; 20.0 µM,-0.71%
same,inhibition,[1]; 50.0 µM,-5.02%
same,inhibition,[2]; 50.0 µM,0%
O=C(C1CCCN1C(=O)c1ccccc1)N1CCOCC1 (configuration not stated),relative solubility at 20 uM,,1
same,relative solubility at 100 uM,,1
same,inhibition,[1]; 50.0 µM,-28%
same,inhibition,[2]; 20.0 µM,0%
same,inhibition,[2]; 50.0 µM,0%
C=CC(=O)N(c1ccc(C(C)(C)C)cc1)C(C(=O)NC(C)(C)C)c1cnccc1C (configuration not stated),relative solubility at 20 uM,,0.99
same,relative solubility at 100 uM,,1
same,inhibition,[1]; 20.0 µM,-14%
same,inhibition,[1]; 50.0 µM,-12.5%
same,inhibition,[2]; 20.0 µM,0%
same,inhibition,[2]; 50.0 µM,0%
C/C=C/C(=O)Nc1cccc(OC2CC(=O)N2)c1 (configuration not stated),relative solubility at 20 uM,,1
same,relative solubility at 100 uM,,1
same,inhibition,[1]; 20.0 µM,-3.03%
same,inhibition,[1]; 50.0 µM,4.68%
same,inhibition,[2]; 50.0 µM,0%
C=CC(=O)N(c1ccc(C(C)(C)C)cc1)C(C(=O)NC(C)(C)C)c1cncc(Cl)c1 (configuration not stated),relative solubility at 20 uM,,0.99
same,relative solubility at 100 uM,,0.86
same,inhibition,[1]; 20.0 µM,34.6%
same,inhibition,[1]; 50.0 µM,19.6%
same,inhibition,[2]; 20.0 µM,0%
same,inhibition,[2]; 50.0 µM,13.5%
C=CC(=O)N(c1ccc(C(C)(C)C)cc1)C(C(=O)NC1CCC1)c1cccnc1 (configuration not stated),relative solubility at 20 uM,,1
same,relative solubility at 100 uM,,1
same,inhibition,[1]; 20.0 µM,6.16%
same,inhibition,[1]; 50.0 µM,12%
same,inhibition,[2]; 20.0 µM,0%
same,inhibition,[2]; 50.0 µM,51.9%
C=CC(=O)N(C(C(=O)NC(C)(C)C)c1cccnc1)[C@@H]1C[C@@H]1c1ccccc1 (stereo in doubt),relative solubility at 20 uM,,0.97
same,relative solubility at 100 uM,,0.88
same,inhibition,[1]; 20.0 µM,-14.4%
same,inhibition,[1]; 50.0 µM,-6.46%
same,inhibition,[2]; 20.0 µM,0%
Cc1ccncc1NC(=O)CCc1nc2cc(Cl)ccc2o1,relative solubility at 20 uM,,0.99
same,relative solubility at 100 uM,,1
same,inhibition,[1]; 20.0 µM,10.4%
same,inhibition,[1]; 50.0 µM,13.1%
same,inhibition,[2]; 50.0 µM,0%
Cc1ccncc1NC(=O)[C@@H]1CNC(=O)O1 (stereo in doubt),relative solubility at 20 uM,,1
same,relative solubility at 100 uM,,1
same,inhibition,[1]; 20.0 µM,1.35%
same,inhibition,[1]; 50.0 µM,1.36%
same,inhibition,[2]; 50.0 µM,8.86%
O=S(=O)(Cc1ccc(F)cc1)Nc1cccnc1,relative solubility at 20 uM,,1
same,relative solubility at 100 uM,,1
same,inhibition,[1]; 20.0 µM,6.67%
same,inhibition,[1]; 50.0 µM,-13.8%
same,inhibition,[2]; 50.0 µM,-5.13%
CN(C(=O)Cc1noc2ccccc12)c1ccc(NC(=O)OC(C)(C)C)cc1,relative solubility at 20 uM,,0.98
same,relative solubility at 100 uM,,0.7
same,inhibition,[1]; 20.0 µM,-14.5%
same,inhibition,[1]; 50.0 µM,-11.9%
same,inhibition,[2]; 20.0 µM,0%
CC(OCC1CCCCO1)C(=O)N(CCc1ccccc1)Cc1cccnc1 (configuration not stated),relative solubility at 20 uM,,1
same,relative solubility at 100 uM,,1
same,inhibition,[1]; 50.0 µM,-20.6%
same,inhibition,[2]; 20.0 µM,0%
same,inhibition,[2]; 50.0 µM,0%
